{"source": "patent US20250171430A1", "about": "“PYRAZOLYL COMPOUNDS AS KV7 CHANNEL ACTIVATORS” (Biohaven Therapeutics Ltd., priority 2022, published 2025)", "data": [{"molecular_target": "T1, Kv7.2/7.3 (Homo sapiens, UniProt O43525+O43526)", "T1 construct": "Kv7.2 tetracycline-induced, Kv7.3 constitutive", "assay": "Kv7.2/7.3 Activation Assay (Thallium Flux Assay)", "assay_type": "cell-based", "settings": "hKV7.2/7.3 cell line; test compound at single concentration of 10 μM; fluorescence at 90 sec normalized to positive control (retigabine, 30 μM)", "summary_of_the_method": "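Human Kv7.2/7.3 cells with Kv7.2 induced overnight by 10 ng/mL tetracycline were loaded with FluxOR II Green for 1 h at 37 °C. Compounds were tested at 10 μM in 0.1% DMSO/extracellular solution, pH 7.4. Thallium/potassium stimulus was added after a 15 s baseline, and 90 s fluorescence (ex 475/em 530 nm) was normalized to 30 μM retigabine.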", "values": [{"smiles": "C[C@@H](C(=O)Nc1nn(C)c(-c2ccc(F)cc2)c1C1CCC1)C1CC(F)(F)C1", "note": "[Compound 132, (R)-N-(4-cyclobutyl-5-(4-fluorophenyl)-1-methyl-1H-pyrazol-3-yl)-2-(3,3-difluorocyclobutyl)propanamide]", "Kv7.2/7.3 Activity": "+ (“+” Moderate Activity 0.15-0.7)"}, {"smiles": "Cn1nc(NC(=O)[C@H]2CC2(F)F)c(C2CCC2)c1-c1ccc(F)cc1", "note": "[Compound 133, (R)-N-(4-cyclobutyl-5-(4-fluorophenyl)-1-methyl-1H-pyrazol-3-yl)-2,2-difluorocyclopropane-1-carboxamide]", "Kv7.2/7.3 Activity": "++ (“++” High Activity ≥ 0.7)"}, {"smiles": "Cn1nc(NC(=O)[C@@H]2CC2(F)F)c(C2CCC2)c1-c1ccc(F)cc1", "note": "[Compound 134, (S)-N-(4-cyclobutyl-5-(4-fluorophenyl)-1-methyl-1H-pyrazol-3-yl)-2,2-difluorocyclopropane-1-carboxamide]", "Kv7.2/7.3 Activity": "− (“−” No Activity < 0.15)"}, {"smiles": "CC(C)C1(C(=O)Nc2nn(C)c(-c3ccc(F)cc3)c2C2CCC2)CC1", "note": "[Compound 136, N-(4-cyclobutyl-5-(4-fluorophenyl)-1-methyl-1H-pyrazol-3-yl)-1-isopropylcyclopropane-1-carboxamide]", "Kv7.2/7.3 Activity": "++ (“++” High Activity ≥ 0.7)"}, {"smiles": "Cn1nc(NC(=O)C2(C3CC3)CC2)c(C2CCC2)c1-c1ccc(F)cc1", "note": "[Compound 137, N-(4-cyclobutyl-5-(4-fluorophenyl)-1-methyl-1H-pyrazol-3-yl)-[1,1'-bi(cyclopropane)]-1-carboxamide]", "Kv7.2/7.3 Activity": "++ (“++” High Activity ≥ 0.7)"}, {"smiles": "CC(C)CC1(C(=O)Nc2nn(C)c(-c3ccc(F)cc3)c2C2CCC2)CC1", "note": "[Compound 138, N-(4-cyclobutyl-5-(4-fluorophenyl)-1-methyl-1H-pyrazol-3-yl)-1-isobutylcyclopropane-1-carboxamide]", "Kv7.2/7.3 Activity": "++ (“++” High Activity ≥ 0.7)"}, {"smiles": "Cn1nc(NC(=O)[C@H]2CC2(F)F)c(C2(C)CCC2)c1-c1ccc(F)cc1", "note": "[Compound 139, (R)-2,2-difluoro-N-(5-(4-fluorophenyl)-1-methyl-4-(1-methylcyclobutyl)-1H-pyrazol-3-yl)cyclopropane-1-carboxamide]", "Kv7.2/7.3 Activity": "++ (“++” High Activity ≥ 0.7)"}, {"smiles": "Cn1nc(NC(=O)[C@@H]2CC2(F)F)c(C2(C)CCC2)c1-c1ccc(F)cc1", "note": "[Compound 140, (S)-2,2-difluoro-N-(5-(4-fluorophenyl)-1-methyl-4-(1-methylcyclobutyl)-1H-pyrazol-3-yl)cyclopropane-1-carboxamide]", "Kv7.2/7.3 Activity": "+ (“+” Moderate Activity 0.15-0.7)"}, {"smiles": "CC(F)(F)C1(C(=O)Nc2nn(CC(F)(F)F)c(-c3ccc(F)cc3)c2C2CCC2)CC1", "note": "[Compound 141, N-(4-cyclobutyl-5-(4-fluorophenyl)-1-(2,2,2-trifluoroethyl)-1H-pyrazol-3-yl)-1-(1,1-difluoroethyl)cyclopropane-1-carboxamide]", "Kv7.2/7.3 Activity": "− (“−” No Activity < 0.15)"}, {"smiles": "C[C@H](C(=O)Nc1nn(CC(F)(F)F)c(-c2ccc(F)cc2)c1C1CCC1)C1(C(F)(F)F)CC1", "note": "[Compound 142, (S)-N-(4-cyclobutyl-5-(4-fluorophenyl)-1-(2,2,2-trifluoroethyl)-1H-pyrazol-3-yl)-2-(1-(trifluoromethyl)cyclopropyl)propanamide]", "Kv7.2/7.3 Activity": "− (“−” No Activity < 0.15)"}, {"smiles": "C[C@@H](C(=O)Nc1nn(CC(F)(F)F)c(-c2ccc(F)cc2)c1C1CCC1)C1(C(F)(F)F)CC1", "note": "[Compound 143, (R)-N-(4-cyclobutyl-5-(4-fluorophenyl)-1-(2,2,2-trifluoroethyl)-1H-pyrazol-3-yl)-2-(1-(trifluoromethyl)cyclopropyl)propanamide]", "Kv7.2/7.3 Activity": "− (“−” No Activity < 0.15)"}, {"smiles": "Cn1nc(NC(=O)[C@H]2C[C@]2(C)C(F)(F)F)c(C2CCC2)c1-c1ccc(F)cc1", "note": "[Compound 144, (1S,2S)-N-(4-cyclobutyl-5-(4-fluorophenyl)-1-methyl-1H-pyrazol-3-yl)-2-methyl-2-(trifluoromethyl)cyclopropane-1-carboxamide]", "Kv7.2/7.3 Activity": "++ (“++” High Activity ≥ 0.7)"}, {"smiles": "Cn1nc(NC(=O)C2(C)CC2)c(C2CCC2)c1-c1ccc(F)cc1", "note": "[Compound 146, N-(4-cyclobutyl-5-(4-fluorophenyl)-1-methyl-1H-pyrazol-3-yl)-1-methylcyclopropane-1-carboxamide]", "Kv7.2/7.3 Activity": "+ (“+” Moderate Activity 0.15-0.7)"}, {"smiles": "Cn1nc(NC(=O)[C@@H]2CC2(F)F)c(C2CCC2)c1C1CC(C)(C)C1", "note": "[Compound 147, (S)-N-(4-cyclobutyl-5-(3,3-dimethylcyclobutyl)-1-methyl-1H-pyrazol-3-yl)-2,2-difluorocyclopropane-1-carboxamide]", "Kv7.2/7.3 Activity": "++ (“++” High Activity ≥ 0.7)"}, {"smiles": "Cn1nc(NC(=O)[C@H]2CC2(F)F)c(C2CCC2)c1C1CC(C)(C)C1", "note": "[Compound 148, (R)-N-(4-cyclobutyl-5-(3,3-dimethylcyclobutyl)-1-methyl-1H-pyrazol-3-yl)-2,2-difluorocyclopropane-1-carboxamide]", "Kv7.2/7.3 Activity": "++ (“++” High Activity ≥ 0.7)"}, {"smiles": "Cc1nc(C)c(-c2c(C3CCC3)c(NC(=O)C3(C(F)(F)F)CC3)nn2C)s1", "note": "[Compound 149, N-(4-cyclobutyl-5-(2,4-dimethylthiazol-5-yl)-1-methyl-1H-pyrazol-3-yl)-1-(trifluoromethyl)cyclopropane-1-carboxamide]", "Kv7.2/7.3 Activity": "− (“−” No Activity < 0.15)"}, {"smiles": "Cn1nc(NC(=O)C2(C(F)(F)F)CC2)c(C2CCC2)c1-c1ccc(OC(F)(F)F)cc1", "note": "[Compound 150, N-(4-cyclobutyl-1-methyl-5-(4-(trifluoromethoxy)phenyl)-1H-pyrazol-3-yl)-1-(trifluoromethyl)cyclopropane-1-carboxamide]", "Kv7.2/7.3 Activity": "+ (“+” Moderate Activity 0.15-0.7)"}, {"smiles": "Cn1nc(NC(=O)C2(C(F)(F)F)CC2)c(C2CCC2)c1C1CC(C)(C)C1", "note": "[Compound 151, N-(4-cyclobutyl-5-(3,3-dimethylcyclobutyl)-1-methyl-1H-pyrazol-3-yl)-1-(trifluoromethyl)cyclopropane-1-carboxamide]", "Kv7.2/7.3 Activity": "++ (“++” High Activity ≥ 0.7)"}, {"smiles": "Cn1nc(NC(=O)C2(C)CC2)c(C2CCC2)c1-c1ccc(Cl)s1", "note": "[Compound 152, N-(5-(5-chlorothiophen-2-yl)-4-cyclobutyl-1-methyl-1H-pyrazol-3-yl)-1-methylcyclopropane-1-carboxamide]", "Kv7.2/7.3 Activity": "++ (“++” High Activity ≥ 0.7)"}, {"smiles": "Cn1nc(NC(=O)C2(C(F)(F)F)CC2)c(C2CCC2)c1-c1ccc(Cl)s1", "note": "[Compound 153, N-(5-(5-chlorothiophen-2-yl)-4-cyclobutyl-1-methyl-1H-pyrazol-3-yl)-1-(trifluoromethyl)cyclopropane-1-carboxamide]", "Kv7.2/7.3 Activity": "++ (“++” High Activity ≥ 0.7)"}, {"smiles": "Cn1nc(NC(=O)[C@H]2CC2(F)F)c(C2CCC2)c1-c1ccc(Cl)s1", "note": "[Compound 154, (R)-N-(5-(5-chlorothiophen-2-yl)-4-cyclobutyl-1-methyl-1H-pyrazol-3-yl)-2,2-difluorocyclopropane-1-carboxamide]", "Kv7.2/7.3 Activity": "+ (“+” Moderate Activity 0.15-0.7)"}, {"smiles": "Cn1nc(NC(=O)[C@@H]2CC2(F)F)c(C2CCC2)c1-c1ccc(Cl)s1", "note": "[Compound 155, (S)-N-(5-(5-chlorothiophen-2-yl)-4-cyclobutyl-1-methyl-1H-pyrazol-3-yl)-2,2-difluorocyclopropane-1-carboxamide]", "Kv7.2/7.3 Activity": "++ (“++” High Activity ≥ 0.7)"}, {"smiles": "Cn1nc(NC(=O)[C@@H]2CC2(F)F)c(C2CCC2)c1C1CC(F)(F)C1", "note": "[Compound 156, (S)-N-(4-cyclobutyl-5-(3,3-difluorocyclobutyl)-1-methyl-1H-pyrazol-3-yl)-2,2-difluorocyclopropane-1-carboxamide]", "Kv7.2/7.3 Activity": "++ (“++” High Activity ≥ 0.7)"}, {"smiles": "Cn1nc(NC(=O)[C@H]2CC2(F)F)c(C2CCC2)c1C1CC(F)(F)C1", "note": "[Compound 157, (R)-N-(4-cyclobutyl-5-(3,3-difluorocyclobutyl)-1-methyl-1H-pyrazol-3-yl)-2,2-difluorocyclopropane-1-carboxamide]", "Kv7.2/7.3 Activity": "++ (“++” High Activity ≥ 0.7)"}, {"smiles": "Cn1nc(NC(=O)C2(C(F)(F)F)CC2)c(C2CCC2)c1C1CC(F)(F)C1", "note": "[Compound 158, N-(4-cyclobutyl-5-(3,3-difluorocyclobutyl)-1-methyl-1H-pyrazol-3-yl)-1-(trifluoromethyl)cyclopropane-1-carboxamide]", "Kv7.2/7.3 Activity": "++ (“++” High Activity ≥ 0.7)"}, {"smiles": "Cn1nc(NC(=O)[C@H]2CC2(F)F)c(C2CCC2)c1-c1ccc(F)cc1F", "note": "[Compound 159, (R)-N-(4-cyclobutyl-5-(2,4-difluorophenyl)-1-methyl-1H-pyrazol-3-yl)-2,2-difluorocyclopropane-1-carboxamide]", "Kv7.2/7.3 Activity": "+ (“+” Moderate Activity 0.15-0.7)"}, {"smiles": "Cn1nc(NC(=O)[C@@H]2CC2(F)F)c(C2CCC2)c1-c1ccc(F)cc1F", "note": "[Compound 160, (S)-N-(4-cyclobutyl-5-(2,4-difluorophenyl)-1-methyl-1H-pyrazol-3-yl)-2,2-difluorocyclopropane-1-carboxamide]", "Kv7.2/7.3 Activity": "− (“−” No Activity < 0.15)"}, {"smiles": "Cn1nc(NC(=O)[C@H]2CC2(F)F)c(C2CCC2)c1-c1ccccc1F", "note": "[Compound 161, (R)-N-(4-cyclobutyl-5-(2-fluorophenyl)-1-methyl-1H-pyrazol-3-yl)-2,2-difluorocyclopropane-1-carboxamide]", "Kv7.2/7.3 Activity": "+ (“+” Moderate Activity 0.15-0.7)"}, {"smiles": "Cn1nc(NC(=O)[C@@H]2CC2(F)F)c(C2CCC2)c1-c1ccccc1F", "note": "[Compound 162, (S)-N-(4-cyclobutyl-5-(2-fluorophenyl)-1-methyl-1H-pyrazol-3-yl)-2,2-difluorocyclopropane-1-carboxamide]", "Kv7.2/7.3 Activity": "+ (“+” Moderate Activity 0.15-0.7)"}, {"smiles": "Cn1nc(NC(=O)[C@@H]2CC2(F)F)c(C2CC2)c1-c1ccc(F)cc1", "note": "[Compound 163, (S)-N-(4-cyclopropyl-5-(4-fluorophenyl)-1-methyl-1H-pyrazol-3-yl)-2,2-difluorocyclopropane-1-carboxamide]", "Kv7.2/7.3 Activity": "+ (“+” Moderate Activity 0.15-0.7)"}]}]}
